From a melting point compilation (Tetko et al.; mined from patent text by program, amines drawn as free bases though some values may be those of a salt) come the findings set out here.

Broadly, the melting point is the temperature of the solid-liquid transition.

Each structure is given as a SMILES string.

Take `COc1ccc(C2CC(c3ccccc3)=NN2c2ccc(C(=O)O)cc2)cc1` (centres undefined): the melting point amounted to 226 °C.
For the compound `CC(Oc1ncn(-c2cccc(C(F)(F)F)c2)n1)C(=O)N(C)C` (centres undefined), the melting point fell in the range of 126 to 127 °C.
Turning to `C=C(c1ccc(N(C)C)cc1)c1ccc(N(C)C)cc1C`, the melting point was in the range of 90 to 91 °C.
Compound `CCOC(=O)C(=C1CCCN1C)c1ccc(OC)cc1` came in with a melting point of 81 to 82 °C.
Take `COc1cc(C(CCC(C(=O)O)c2cc(OC)c(OC)c(OC)c2)C(=O)O)cc(OC)c1OC` (centres undefined): the melting point lay in the range of 226 to 233 °C.
`CC(=O)OC[C@@](O)(c1ccc(F)cc1F)[C@H](C)c1ccncn1` had a melting point of 102 to 104 °C.
`C=CCN(CC=C)c1nc(NC(=O)Cc2cccs2)n2oc(=O)nc2n1` returned a melting point of 140 to 142 °C.
Regarding `CCCn1c(CCOC)nc2c(N)nc3cc(OCCCN)ccc3c21`, the melting point is 165 to 166 °C.
The value for `COCCOC(=O)c1c(S(C)(=O)=O)ccc(C(=O)O)c1C` was 90 to 93 °C.
The value for `CC(C)Cc1ccc2ccc(=O)[nH]c2n1` was 135 to 137 °C.
As for `CCOC(=O)[C@@H](CNC(=O)c1ccccc1)[C@H](O)C(F)(F)F`, the melting point lay in the range of 108 to 110 °C.
Under `OC(CN1CC1)c1ccccc1` (centres undefined) stands 74 to 76 °C.
On to `COc1c(OC2CCC(=O)CC2)ccnc1C`, for which the melting point was in the range of 56 to 57 °C.
Under `O=[N+]([O-])c1n[nH]c(-c2ccc(C(F)F)c(C(SC(c3cc(-c4nc([N+](=O)[O-])n[nH]4)ccc3C(F)F)C(F)(F)F)C(F)(F)F)c2)n1` (centres undefined) stands 74 to 76 °C; under `Cc1cc(C=Cc2ccccc2OCC(O)C(N)C(C)C)on1` (centres undefined), 106 to 108 °C; under `Cc1nc2c(-c3cccc(N4CCN(C)CC4)c3)cnn2c(N)c1-c1cccc(Br)c1`, 107 to 113 °C.
In turn, `COc1ccc(C)cc1NC(=O)Nc1ccc(N2CCCN(C(=O)Nc3ccc(OCCO)cc3C(F)(F)F)CC2)cc1` yielded a melting point of 118 to 120 °C.
`CN(C)S(=O)(=O)NC(c1ccccc1)P(=O)(Oc1ccccc1)Oc1ccccc1` (centres undefined): the melting point is 193 to 196 °C.
Compound `CCOC(=O)c1cnc2ccnn2c1Cl` registered a melting point of 93 to 95 °C.
As to `COc1ccc(-n2c(-c3ccc(OCCCl)cc3)nc3c(OC)cccc3c2=O)cc1`, the melting point was 151 to 152 °C.
In turn, `COc1ccccc1Oc1cccc2c1NC(=O)C2` had a melting point of 145 to 147 °C.
With `COc1ccc(C(=O)c2cccc(C)c2Cl)cc1`, the melting point is 64.7 to 65.8 °C.
The value for `CCOC(=O)N1CCC(NC(=S)Nc2cccnc2NCc2ccco2)CC1` was 133 °C.
Under `COC(=O)Cc1cc(NC(=O)OC(C)(C)C)c(NC(=O)CC(=O)c2cccc(C#N)c2)cc1C#Cc1ccccc1` stands 138 °C; under `NNc1ccc(Cl)cc1Cl`, 90 to 91 °C; under `CN(c1cccnc1Cl)S(=O)(=O)c1ccccc1[N+](=O)[O-]`, 116 to 118 °C.
The value for `COc1ccc(N2CCN(c3c(C)c(C)c4c(c3C)CC(C)(C)O4)CC2)cn1` was 178 to 180 °C; that for `CC(=O)NC[C@H]1CN(c2ccc(C3CCN(C(=O)OC(C)(C)C)CC3)c(F)c2)C(=O)O1` was 144 to 146 °C; that for `CCOC(=O)c1c(N2CCN(C=O)CC2)c2cc(C)ccc2n(-c2ccccc2)c1=O` was 240 °C.
Turning to `O=C(NN1CCCC1)C(CS)Cc1ccccc1` (centres undefined), the melting point came out at 93 °C.
For `CCOC(=O)C1=C(N)NC2=C(C(=O)CCC2)C1c1nccc2ccccc12` (centres undefined), the melting point was 272 °C.
For the compound `COC(=O)NC(C)(C(=O)NS(=O)(=O)c1ccc(C)cc1)C(C)C` (centres undefined), the melting point lay in the range of 120 to 122 °C.
Compound `CCCC(=O)OCCOc1ccc2oc3cc(C#N)ccc3c(=O)c2c1` showed a melting point of 145 to 147 °C.
For `CCc1cccc(C(=O)c2nc(OC)cc(OC)n2)c1N`, the melting point lay within 122 to 123 °C.
The value for `Cc1cc(-c2c(-c3ccc(S(C)(=O)=O)cc3)cnn(-c3ccc(F)c(F)c3)c2=O)ccc1F` was 166 to 168 °C.
In turn, `COc1ccc(-c2cncc(OC3SCC(OC(C)=O)C(OC(C)=O)C3OC(C)=O)c2)c(C)c1` (centres undefined) yielded a melting point of 283 °C.
For the compound `C[C@@H]1CCNC[C@@H]1N(C)c1ncnc2[nH]ccc12`, the melting point was found to be 158 °C.
Consider `O=C(O)Cc1c[nH]c(-c2cc3nc(C(=O)O)c(=O)[nH]c3cc2[N+](=O)[O-])n1`, for which the melting point was above 300 °C.
In the case of `CCCNCc1cnc(-c2ncn3c2CN(C)C(=O)c2cc(F)ccc2-3)o1`, the melting point is 134 to 136 °C.
As for `CCSc1ncccc1C(=O)N1CCC(=O)c2ccc(Cl)cc21`, the melting point was in the range of 120 to 123 °C.
As to `CCOC(=O)/C=C/c1cnc(-c2ccc(OCc3ccccc3)c(C34CC5CC(CC(C5)C3)C4)c2)nc1`, the melting point is 164 to 167 °C.
In turn, `c1ccc(C2(c3ccccc3)SCCS2)cc1` displayed a melting point of 104 to 105 °C.
Take `CNC(=O)c1cc2c(Oc3ccc(C4=NCCN4)cc3)cncc2s1`: the melting point was above 280 °C.
`CC1=C(C(=O)O)C(c2ccccc2[N+](=O)[O-])C(C(=O)OCCC#N)=C(C)N1` (centres undefined) showed a melting point of 132 to 134 °C.
The compound `Cc1c(NC(=O)CC(C)(C)C)cc2c(c1C)OC(C)(C)C2O` (centres undefined) displayed a melting point of 184 to 185 °C.
For the compound `CCCCCCCCC(=O)OCC(O)COC(=O)CCCCCCCC`, the melting point was 30 to 31 °C.
As to `CC(C)c1cccc(C(C)C)c1NC(=O)NOC(c1ccccc1)c1ccccc1`, the melting point fell in the range of 152 to 154 °C.
As for `O=C1CCC(N2Cc3cc(CNC(=O)c4cccc(C(F)(F)F)c4)ccc3C2=O)C(=O)N1` (centres undefined), the melting point lay within 244 to 246 °C.
Under `CC(C)CN1C(=O)COc2cc(F)c(N)cc21` stands 176 to 178 °C; under `N#Cc1nc2cc3c(cc2[nH]1)OC(F)(Cl)C(F)(Cl)O3` (centres undefined), above 230 °C; under `COC(=O)C=Cc1ccc2[nH]ccc2c1`, 138 to 140 °C.
Compound `CCN1CC(CCCl)N(C)c2ccccc2C1=O` (centres undefined) had a melting point of 75 to 79 °C.
Compound `CCCCOC(=O)COCCCNC(=O)[C@H](C)NC(=O)OCc1ccccc1` had a melting point of 54 to 55 °C.
For the compound `COC(=O)c1nn(-c2ccccc2)c2sc(CN3CCOCC3)cc2c1=O`, the melting point was 167 to 169 °C.
Under `CCCc1ncc(C=CC=CC(=O)OCC)s1` stands 52 °C.
`O=C(Oc1ccc(Cl)c(Cl)c1)c1cc2c(cn1)[nH]c1ccccc12` showed a melting point of 260 to 261 °C.
Under `CC1Cc2cc3c(cc2C(c2ccc([N+](=O)[O-])cc2)=NN1)OCO3` (centres undefined) stands 162 to 164 °C; under `C=CCc1cc(OC)c(OC)cc1Cc1cnc(N)nc1N`, 170 to 171 °C; under `Oc1ccc(-c2cocn2)cc1`, 148 °C.
`CCCCCCCCCCCCCCCc1cc2cc(C(=O)O)ccc2n1C` had a melting point of 127 to 128 °C.
Consider `O=C(O)c1cccc2c1C(=O)c1ccccc1S2(=O)=O`, for which the melting point lay within 269 to 271 °C.
`CC(Oc1ccc(OCc2ccccc2)cc1)C(=O)N(C)C#N` (centres undefined) registered a melting point of 56 to 58 °C.
Regarding `CC(O)CN(CCc1ccc(Nc2ncc3c(n2)-c2ccccc2C(c2cccc(Br)c2)C3)cc1)Cc1ccccc1` (centres undefined), the melting point is 90 to 92 °C.
With `CCOc1cc(NC(=O)NS(=O)(=O)c2ccc(C)cc2)cc(OCC)n1`, the melting point is above 270 °C.
Compound `O=C1C2=C(CCCC2)C(=O)N1c1ccc(Cl)cc1F` registered a melting point of 81 to 82 °C.
Under `C(=C(c1ccccc1)c1ccccc1)C1CCN(CCCCCCc2cncnc2)CC1` stands 88 to 90 °C; under `Cn1nnnc1CC(=O)c1ccc(Br)cc1N`, 159 to 160 °C; under `C1=CCC23C=CC=CN2c2nccn2C3=C1` (centres undefined), 258 to 260 °C.
In turn, `NNc1cc(OC2CCCC2)c(Cl)cc1F` returned a melting point of 77 to 79 °C.
The compound `CCOC(=O)C(Cc1ccc(OCc2ccccc2)cc1)Oc1ccc(Cl)cc1` (centres undefined) had a melting point of 63 to 64 °C.
In turn, `CN(C)CCCN1C(=O)c2cc(Cl)c(S(N)(=O)=O)cc2C1=O` returned a melting point of 192 to 194 °C.
In turn, `Cc1cccc(Nc2cc(Cl)nc(SCC(=O)NC(C)C)n2)c1C` displayed a melting point of 156 to 158 °C.
In turn, `O=C(O)c1cc(OCC(F)(F)F)cc(Oc2cccc(C(F)(F)F)c2)n1` registered a melting point of 93 to 95 °C.
Compound `CCc1c(-c2ccc(O)cc2)c2cc(C(C)=O)c3ccc(O)c1n32` gave a melting point of 167 to 173 °C.
Turning to `CN(C)c1cc(CC(C#N)=CNc2ccccc2)cc(N(C)C)c1Cl`, the melting point was 168 °C.
In turn, `COC=C(C(=O)OC)c1ccccc1COc1ccccc1` registered a melting point of 60 °C.
On to `COc1ccc(C2=NN(c3cnc4ccccc4n3)C(=O)[C@H]3CC=CC[C@@H]23)cc1Cl` (relative stereo), for which the melting point fell in the range of 172 to 174 °C.
Regarding `CCn1ncc(C(=O)c2cc(C)c3c(c2C)C(=O)C(C)(C)CS3(=O)=O)c1O`, the melting point was in the range of 160 to 163 °C.
`CN(Cc1cc2c3c(c1)c(=O)c(C(=O)NCc1ccc(Cl)cc1)cn3CC(=O)N2C)C[C@@H](O)c1ccsc1` came in with a melting point of 137 to 139 °C.
`O=C1C(Cl)=C(Cl)C(=O)c2cc(Cl)ccc21` gave a melting point of 148 °C.
With `COc1ccc(C(=O)N2CC(O)CC2C(=O)O)cc1` (centres undefined), the melting point came to 192 °C.
Under `N#Cc1c(N2CCNCC2)c2cccnc2n(Cc2ccccc2)c1=O` stands 211 °C; under `CC(c1ccccc1)N1Cc2cncn2C(c2cccc(Br)c2)C1=O` (single isomer, unassigned; (+)), 45 to 50 °C.
The compound `Cc1ccc(C)c(C2CC(=O)C(C(=O)c3ccccc3)=C(O)C2)c1` (centres undefined) returned a melting point of 182 to 185 °C.
`CO/C=C(/C(=O)OC)c1ccccc1COc1nc(C(F)(F)F)sc1C`: the melting point is 59 °C.
The compound `COc1ccc(-n2c(=O)n(O)c(=O)c3cc(F)c(N4CCN(C)CC4)cc32)cc1` yielded a melting point of 195 to 196 °C.
With `CCCc1nc2c(N)nc(C)c(C)c2n1CC1(O)CCCCC1`, the melting point lay in the range of 214 to 216 °C.
The value for `O=[N+]([O-])c1ccc(SCCc2c[nH]cn2)nc1` was 147 to 148 °C; that for `Cc1oc(-c2ccccc2)nc1CCOc1ccc(CC2SC(=O)NC2=O)cn1` (centres undefined) was 191 to 192 °C.
